Experimental data reported in patent US10947233B2, “Crystals of azabicyclic compound” (TAIHO PHARMACEUTICAL CO., LTD., priority 2015, dated 2021).

Columns and labels:
[1] = Blood concentration measurement test (oral administration to mice); assay type: in vivo, mice (Balb/cA); settings: 50 mg/10 mL/kg; for AUC0-24 hr: mice (Balb/cA) under feeding conditions, Compound 1 in plasma, LC-MS/MS
Experimental: Respective solutions for administration (50 mg/10 mL/kg) of the Form I crystal and Form II crystal were produced. These solutions were administered orally to mice (Balb/cA) bred under feeding conditions at a volume of 10 mL/kg body weight using a sonde for oral administration. After the administration, the mice were returned to cages for mice to inspect their conditions. Water and feed were freely available for the mice in the cages. The mice were anesthetized with isoflurane 1, 2, 3, 4, 8 and 24 hours after the administration and 60 μL of blood was collected from their orbital sinuses using capillary blood collection tubes. The collected blood was cooled on ice and centrifuged to separate plasma.
AUCs0-24 hrwere calculated with a linear-log trapezoid method using Phoenix WinNonlin (v6.3.0), software from Pharsight, from the concentrations of Compound 1 in plasma samples measured with Multiple Reaction Monitoring method using LC-MS/MS.
Therefore, the Form II crystal according to the present invention is remarkably excellent in oral absorbability and useful as an oral pharmaceutical composition.

[2] = Solid stability test (accelerated test), related substances by HPLC; assay type: physicochemical
Experimental: The solid stability of the Form II crystal obtained in Example 1 after storage of 1, 3 and 6 months at 40° C.±2° C./75% RH±5% RH was measured under the following conditions. • Storage conditions: 40° C.±2° C./75% RH±5% RH • Measurement points: 1, 3 and 6 month • Storage amount: 6 g • Storage container: doubled plastic bags, banding bands+plastic drums • Preparation method of sample solution: 100 mg of the Form II crystal is accurately measured, a mixed solution of acetonitrile-water (4:1) is added to dissolve the crystal (sonicated to dissolve, if difficult to dissolve), and the solution is diluted in measuring cylinder to exact 200 mL total. 10 mL of this solution is accurately measured, and a mixed solution of acetonitrile-water (1:1) is added to exact 20 mL to be used as a sample solution.
HPLC was performed in the following conditions. • Column: general foundation Chemicals Evaluation and Research Institute, Japan L-column2 ODS • Particle size: 3 μm, Inner diameter: 4.6 mm, Length: 15 cm • Measurement wavelength: 220 nm • Mobile phase: Mobile phase A: 10 mmol/L phosphate buffer (pH6.9), • Mobile phase B: acetonitrile • Flow rate: about 1.0 mL/min
The concentration gradient is controlled by changing the mixing ratio of mobile phases A and B as follows, when feeding the liquid.
The amounts of related substances in the sample solutions were measured and evaluated by HPLC, of which result is shown in Table 3.
The related substances are defined as substances detected other than 3-ethyl-4-{3-isopropyl-4-(4-(1-methyl-1H-pyrazol-4-yl)-1H-imidazol-1-yl)-1H-pyrazolo[3,4-b]pyridin-1-yl}benzamide.

Row | AUC0-24 hr [1] [µM·h] | Related substances ([2]; storage 1 month at 40° C.±2° C./75% RH±5% RH) | Related substances ([2]; storage 3 months at 40° C.±2° C./75% RH±5% RH) | Related substances ([2]; storage 6 months at 40° C.±2° C./75% RH±5% RH) | AUC0-24 hr of the Form II crystal relative to the Form I crystal ([1]; mice (Balb/cA)) | SMILES
1 | 59.64 |  |  |  |  | CCc1cc(C(N)=O)ccc1-n1nc(C(C)C)c2c(-n3cnc(-c4cnn(C)c4)c3)ccnc21 [Form I crystal, 3-ethyl-4-{3-isopropyl-4-(4-(1-methyl-1H-pyrazol-4-yl)-1H-imidazol-1-yl)-1H-pyrazolo[3,4-b]pyridin-1-yl}benzamide]
2 | 171.33 | less than 0.1% | less than 0.1% | less than 0.1% | approximately 3 times | CCc1cc(C(N)=O)ccc1-n1nc(C(C)C)c2c(-n3cnc(-c4cnn(C)c4)c3)ccnc21 [Form II crystal, 3-ethyl-4-{3-isopropyl-4-(4-(1-methyl-1H-pyrazol-4-yl)-1H-imidazol-1-yl)-1H-pyrazolo[3,4-b]pyridin-1-yl}benzamide]
